In ChEMBL document CHEMBL1130551, “Synthesis and progesterone receptor binding affinity of substituted 1-phenyl-7-benzyl-4,5,6,7-tetrahydro-1-indazoles” (Bioorg Med Chem Lett, 1997):
Calls of active or inactive are those of the source. No cut-off for these calls is given here.

Tests used:
T47D [1] = assay: Agonistic activity in T47D human breast carcinoma cell proliferation assay; assay type: functional
Progesterone receptor [2] = target: T1, Progesterone receptor (Oryctolagus cuniculus, UniProt P06186); assay: Binding affinity determined by ability to displace [3H]R5020 radioligand using uterine progesterone receptor obtained from estrogen-primed rabbit
T1 sequence (P06186 whole entry): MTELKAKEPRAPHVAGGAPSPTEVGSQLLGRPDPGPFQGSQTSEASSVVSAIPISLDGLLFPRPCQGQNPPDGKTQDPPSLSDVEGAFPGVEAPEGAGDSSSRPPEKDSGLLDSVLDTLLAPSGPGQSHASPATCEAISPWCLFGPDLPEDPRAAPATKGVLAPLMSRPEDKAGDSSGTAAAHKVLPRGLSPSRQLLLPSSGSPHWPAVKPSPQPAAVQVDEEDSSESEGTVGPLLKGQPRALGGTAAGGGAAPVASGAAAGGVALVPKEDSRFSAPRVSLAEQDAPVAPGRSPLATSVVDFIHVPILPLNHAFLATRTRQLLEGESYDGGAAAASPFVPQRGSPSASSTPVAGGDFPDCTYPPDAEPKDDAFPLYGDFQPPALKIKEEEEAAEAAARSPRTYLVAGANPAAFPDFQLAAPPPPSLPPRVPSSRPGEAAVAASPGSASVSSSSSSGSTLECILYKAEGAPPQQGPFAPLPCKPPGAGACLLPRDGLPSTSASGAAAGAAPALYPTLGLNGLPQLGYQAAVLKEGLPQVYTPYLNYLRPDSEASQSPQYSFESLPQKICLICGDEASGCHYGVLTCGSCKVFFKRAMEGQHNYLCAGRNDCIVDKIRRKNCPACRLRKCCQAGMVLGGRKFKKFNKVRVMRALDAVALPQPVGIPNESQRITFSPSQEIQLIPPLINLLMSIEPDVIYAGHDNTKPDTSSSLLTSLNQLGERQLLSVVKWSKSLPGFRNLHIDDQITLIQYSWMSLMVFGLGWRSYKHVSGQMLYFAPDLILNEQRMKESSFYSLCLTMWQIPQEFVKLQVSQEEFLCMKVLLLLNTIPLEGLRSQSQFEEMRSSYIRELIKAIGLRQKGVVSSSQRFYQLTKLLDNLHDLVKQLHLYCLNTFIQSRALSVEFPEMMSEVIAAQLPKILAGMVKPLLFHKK

T47D [3] = assay: Agonistic activity in T47D human breast carcinoma cell proliferation assay; Not active; assay type: functional, cell-based
Progesterone receptor [4] = target: T1, Progesterone receptor; assay: Displacement of [3H]R5020 from uterine progesterone receptor of estrogen-primed rabbits; Not active up to 10 uM
T47D [5] = assay: Agonistic activity in T47D human breast carcinoma cell proliferation assay; Not active up to 10 uM; assay type: functional, cell-based
Progesterone receptor [6] = target: T1, Progesterone receptor; assay: Displacement of [3H]R5020 from uterine progesterone receptor of estrogen-primed rabbits; Not active

| IC50 (Progesterone receptor [2]) [nM] | Compound | SC200 (T47D [3]) | other results |
| --- | --- | --- | --- |
| 3 | O=Cc1nn(-c2ccc(F)cc2)c2c1CCCC2Cc1ccccc1 (centres undefined) | – | SC200 (T47D [1]): 22 nM |
| 10000 | O=Cc1nn(-c2ccc(F)cc2)c2c1CCCC2Cc1ccc(-c2ccccc2)cc1 (centres undefined) | – | – |
| 49 | CN/N=C/c1nn(-c2ccc(F)cc2)c2c1CCCC2Cc1cccc2ccccc12 (centres undefined) | inactive | – |
| 5.3 | CC(=O)OC(OC(C)=O)c1nn(-c2ccc(F)cc2)c2c1CCCC2Cc1cccc2ccccc12 (centres undefined) | – | SC200 (T47D [1]): 72 nM |
| 3000 | CCN(CC)C(=O)c1nn(-c2ccc(F)cc2)c2c1CCCC2Cc1cccc2ccccc12 (centres undefined) | – | – |
| 2 | O=Cc1nn(-c2ccc(F)cc2)c2c1CCCC2Cc1ccc(F)c(F)c1 (centres undefined) | – | SC200 (T47D [1]): 81 nM |
| 6 | O=Cc1nn(-c2ccccc2)c2c1CCCC2Cc1cccc2ccccc12 (centres undefined) | – | SC200 (T47D [1]): 56 nM |
| 1000 | CCC(=O)c1nn(-c2ccc(F)cc2)c2c1CCCC2Cc1cccc2ccccc12 (centres undefined) | – | – |
| 4010 | CCCCCCCC(=O)OCc1nn(-c2ccc(F)cc2)c2c1CCCC2Cc1cccc2ccccc12 (centres undefined) | inactive | – |
| 236 | CC(O)c1nn(-c2ccc(F)cc2)c2c1CCCC2Cc1cccc2ccccc12 (centres undefined) | – | – |
| 1570 | COC(=O)Nc1nn(-c2ccc(F)cc2)c2c1CCCC2Cc1cccc2ccccc12 (centres undefined) | – | – |
| 69 | O=Cc1nn(-c2cccc(Cl)c2)c2c1CCCC2Cc1cccc2ccccc12 (centres undefined) | – | – |
| 2190 | CC(C)c1ccc(CC2CCCc3c(C=O)nn(-c4ccc(F)cc4)c32)cc1 (centres undefined) | – | – |
| 3.2 | O=Cc1nn(-c2ccc(F)cc2)c2c1CCCC2Cc1cccc2ccccc12 (centres undefined) | – | SC200 (T47D [1]): 105 nM |
| 2.3 | Fc1ccc(-n2nc(/C=N/c3ccccc3)c3c2C(Cc2cccc4ccccc24)CCC3)cc1 (centres undefined) | – | SC200 (T47D [1]): 185 nM |
| 690 | CCC(O)c1nn(-c2ccc(F)cc2)c2c1CCCC2Cc1cccc2ccccc12 (centres undefined) | – | – |
| 12.7 | COc1ccc(-n2nc(C=O)c3c2C(Cc2cccc4ccccc24)CCC3)cc1 (centres undefined) | inactive | – |
| 163 | COc1ccc(CC2CCCc3c(C=O)nn(-c4ccc(F)cc4)c32)cc1 (centres undefined) | – | – |
| – | COC(=O)c1ccc(-n2nc(C=O)c3c2C(Cc2cccc4ccccc24)CCC3)cc1 (centres undefined) | – | IC50 (Progesterone receptor [4]): Not Active |
| 851 | CCCCOC(=O)c1ccc(-n2nc(C=O)c3c2C(Cc2cccc4ccccc24)CCC3)cc1 (centres undefined) | inactive | – |
| 10.5 | O=Cc1nn(-c2ccc(F)cc2)c2c1CCCC2Cc1ccccc1Cl (centres undefined) | – | SC200 (T47D [1]): 100 nM |
| 1890 | COc1ccc(CC2CCCc3c(C=O)nn(-c4ccc(F)cc4)c32)cc1OC (centres undefined) | – | – |
| > 10000 | CCCCCCCCOC(=O)c1ccc(-n2nc(C=O)c3c2C(Cc2cccc4ccccc24)CCC3)cc1 (centres undefined) | inactive | – |
| 7.7 | Cc1ccc(CC2CCCc3c(C=O)nn(-c4ccc(F)cc4)c32)cc1 (centres undefined) | – | SC200 (T47D [1]): 275 nM |

| IC50 (Progesterone receptor [2]) [nM] | Compound | SC200 (T47D [3]) | other results |
| --- | --- | --- | --- |
| > 10000 | O=S(=O)(N/N=C/c1nn(-c2ccc(F)cc2)c2c1CCCC2Cc1cccc2ccccc12)c1ccccc1 (centres undefined) | inactive | – |
| 52 | OCc1nn(-c2ccc(F)cc2)c2c1CCCC2Cc1cccc2ccccc12 (centres undefined) | – | SC200 (T47D [5]): inactive |
| 9 | O=Cc1nn(-c2ccc(Cl)cc2)c2c1CCCC2Cc1cccc2ccccc12 (centres undefined) | inactive | – |
| 11.9 | O=Cc1nn(-c2ccc(F)cc2)c2c1CCCC2Cc1ccc(Cl)cc1 (centres undefined) | inactive | – |
| 73 | CC(=O)OCc1nn(-c2ccc(F)cc2)c2c1CCCC2Cc1cccc2ccccc12 (centres undefined) | inactive | – |
| > 10000 | CC(=O)N/N=C/c1nn(-c2ccc(F)cc2)c2c1CCCC2Cc1cccc2ccccc12 (centres undefined) | – | – |
| > 10000 | O=C(N/N=C/c1nn(-c2ccc(F)cc2)c2c1CCCC2Cc1cccc2ccccc12)c1ccccc1 (centres undefined) | – | SC200 (T47D [1]): 2265 nM |
| 1380 | CCN(CC)Cc1nn(-c2ccc(F)cc2)c2c1CCCC2Cc1cccc2ccccc12 (centres undefined) | – | – |
| 6.5 | O=Cc1nn(-c2ccc(F)cc2)c2c1CCCC2Cc1ccc(F)cc1 (centres undefined) | – | SC200 (T47D [1]): 27 nM |
| – | O=Cc1nn(-c2ccc(O)cc2)c2c1CCCC2Cc1cccc2ccccc12 (centres undefined) | – | IC50 (Progesterone receptor [6]): Not Active |
| 1760 | CC(=O)c1nn(-c2ccc(F)cc2)c2c1CCCC2Cc1cccc2ccccc12 (centres undefined) | – | – |
| 547 | CN(C)/N=C/c1nn(-c2ccc(F)cc2)c2c1CCCC2Cc1cccc2ccccc12 (centres undefined) | inactive | – |
| 41 | N#Cc1nn(-c2ccc(F)cc2)c2c1CCCC2Cc1cccc2ccccc12 (centres undefined) | inactive | – |
| 147 | C=Cc1nn(-c2ccc(F)cc2)c2c1CCCC2Cc1cccc2ccccc12 (centres undefined) | inactive | – |
| 1000 | CC(C)(C)c1ccc(CC2CCCc3c(C=O)nn(-c4ccc(F)cc4)c32)cc1 (centres undefined) | – | – |
| 182 | O=C(OCc1nn(-c2ccc(F)cc2)c2c1CCCC2Cc1cccc2ccccc12)c1ccccc1 (centres undefined) | inactive | – |
| 56.4 | O=Cc1nn(-c2ccc(F)cc2)c2c1CCCC2Cc1ccc2ccccc2c1 (centres undefined) | inactive | – |
| 90 | CCOC(=O)OCc1nn(-c2ccc(F)cc2)c2c1CCCC2Cc1cccc2ccccc12 (centres undefined) | inactive | – |
| > 10000 | O=C(NCc1ccccc1)c1nn(-c2ccc(F)cc2)c2c1CCCC2Cc1cccc2ccccc12 (centres undefined) | – | – |
| 16.8 | COc1cccc(CC2CCCc3c(C=O)nn(-c4ccc(F)cc4)c32)c1 (centres undefined) | – | SC200 (T47D [1]): 417 nM |
| 1380 | Fc1ccc(-n2nc(CNCc3ccccc3)c3c2C(Cc2cccc4ccccc24)CCC3)cc1 (centres undefined) | – | – |
| 97 | Fc1ccc(-n2nc(C3OCCO3)c3c2C(Cc2cccc4ccccc24)CCC3)cc1 (centres undefined) | – | – |
| 628 | O/N=C/c1nn(-c2ccc(F)cc2)c2c1CCCC2Cc1cccc2ccccc12 (centres undefined) | – | – |
